What was measured:
[1] = test system: BxPC3-luc, clone 1F11 cells; test: Gemcitabine sparing pancreatic cancer model, subcutaneous BxPC3-luc tumors; format: in vivo, female NSG mice; settings: Compound C 10 mg/kg BID s.c., gemcitabine 25 mg/kg QW i.p., day 7 through day 70; FIG. 4
Protocol: Methods: Pancreatic cancer tumors were generated by subcutaneous injection of 100 μL of BxPC3-luc, clone 1F11 cells (1×10^6) in matrigel into the right flank of female NSG mice. Tumors were allowed to grow for 7 days prior to initiating treatment. At day 7 post-implant, mice were randomized into treatment groups (n=5/group) and treatment was initiated per dose route and regimen as described below:
Gemcitabine (Gem) at a low sensitizing dose was administered 25 mg/kg QW by intraperitoneal route. Compound C was administered 10 mg/kg BID by subcutaneous route. Treatments were administered from day 7 through day 70.
Body weight and tumor volume by caliper was measured weekly. At day 70 imaging was performed by administering 150 mg/kg luciferin and measuring whole body […] by IVIS imaging system. Tumors and organs were then harvested and imaged ex vivo.

P-selectin = test: P-selectin-mediated HL-60 cell binding to immobilized P-selectin/Fc chimera; format: cell-based; settings: HL-60 cells, best-fit values
Protocol: 96 well plates were coated with 10 μg/mL Protein A overnight, then blocked with 2% FBS for 1 hour. 2 μg/mL P-selectin/Fc chimera was bound to the Protein A for 3 hours at 4° C. HL-60 cells (2e5 cells/well, CMFDA labeled) were then layered onto the P-selectin and allowed to bind for 1 hour at room temperature. Wells were treated concurrently with test samples to determine inhibitory binding activity. After 1 hour, unbound cells were washed and bound cells lysed in a 1% Triton-X solution and read on a Fluorimeter at 480/520 nm.

Nc1ccn([C@@H]2O[C@H](CO)[C@@H](O)C2(F)F)c(=O)n1 [Gemcitabine]
tumor growth inhibition (tumor volume by caliper) [1]: no effect on tumor growth

enoxaparin
P-sel IC50 (P-selectin): 64.72 µg/mL
